Test systems include Malme-3M; HCC 2998; HCT-15; SK-MEL-28; ACHN; LOX IMVI; UACC-62; NCI-H23; K562; SK-MEL-5; LXFL 529; 786-0; KM12; RPMI-8226; COLO 205; NCI-H226; OVCAR-5.
Common to all, as to experiment: NCI anticancer screen, dose series, 48 h

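Cultured in 96-well plates, cells were exposed to test compound for 48 hours across five concentrations. GI50 is the concentration that inhibits growth by half.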 Calls of active or inactive are those of the source. Cut-off read from the data, not from the text of the source: active = GI50 up to about 1.1 µM and inactive = higher. A value given as a limit tells only on which side of the number the result lay.

With `CCCCCCCCCCCCCCCc1nnc(SCC(=O)O)[nH]1`, the GI50 with Malme-3M was > 100 µM (inactive); in the assay on HCC 2998 it was 43.9 µM (inactive); in the assay with HCT-15, 31.6 µM; in the assay with SK-MEL-28 it was 80.7 µM (inactive); in the assay with ACHN it was 47.3 µM (inactive); in the assay on LOX IMVI, 33.4 µM (inactive). The GI50 with UACC-62 was 42.2 µM (inactive); in the assay with NCI-H23 it was > 100 µM (inactive); in the assay on K562 it was 16.4 µM (inactive); in the assay on SK-MEL-5 it was > 100 µM (inactive); in the assay on LXFL 529 it was 22.8 µM (inactive); in the assay on 786-0, 18.5 µM (inactive). The GI50 is 48.3 µM (inactive) in the assay on KM12 and 78.2 µM (inactive) in the assay on RPMI-8226.

Regarding `COc1ccc(C[C@]23CCC(=O)N2CCc2cc(OC)c(O)cc23)cc1O`, the GI50 in the assay with Malme-3M is > 100 µM (inactive); with HCC 2998, > 100 µM (inactive); in the assay on HCT-15 it was above 100 µM; with COLO 205, > 100 µM (inactive); in the assay on SK-MEL-28, > 100 µM (inactive); in the assay on ACHN it was > 100 µM (inactive). Moreover, the GI50 in the assay with LOX IMVI, with NCI-H226, with UACC-62, with NCI-H23, in the assay on K562 and in the assay with SK-MEL-5 was > 100 µM (inactive) in each case. Besides, the GI50 with LXFL 529, with OVCAR-5, in the assay on 786-0, in the assay with KM12 and with RPMI-8226 was > 100 µM (inactive) throughout.

With `CC1=C(C(=O)Nc2cc(F)c(F)cc2F)C(c2cccc([N+](=O)[O-])c2)C(C(=O)Nc2ccccc2C(F)(F)F)=C(C)N1` (configuration not stated), the GI50 was 25.4 µM (inactive) in the assay on Malme-3M; 20 µM (inactive) in the assay on HCC 2998; 28.7 µM (inactive) in the assay with COLO 205; 22 µM (inactive) in the assay on SK-MEL-28; 21.1 µM (inactive) in the assay on ACHN; 17.9 µM (inactive) with LOX IMVI. Besides, the GI50 was 21.3 µM (inactive) in the assay with NCI-H226; 16.6 µM (inactive) in the assay with NCI-H23; 14.4 µM (inactive) in the assay on K562; 22.1 µM (inactive) in the assay on SK-MEL-5; 16.8 µM (inactive) in the assay on LXFL 529; 17.9 µM (inactive) in the assay on OVCAR-5. Besides, the values for the GI50 with 786-0, in the assay on KM12 and with RPMI-8226 were 17.3 µM (inactive), 21.3 µM (inactive) and 13 µM (inactive), respectively.

Consider `CCCCc1c2c(nc3c1CC/C(=C\c1ccccc1)C3=O)CCCC2`, for which the GI50 in the assay with Malme-3M was 7.33 µM (inactive); in the assay on HCC 2998 it was 3.52 µM (inactive); in the assay with HCT-15, 3.3 µM; in the assay with COLO 205, 7.48 µM (inactive); in the assay on SK-MEL-28, 3.37 µM (inactive); in the assay with ACHN it was 12.1 µM (inactive). Besides, the GI50 in the assay on LOX IMVI was 1.76 µM (inactive); in the assay on NCI-H226, > 10 µM (inactive); with UACC-62, 2.72 µM (inactive); in the assay on NCI-H23 it was 5.43 µM (inactive); with K562, 4.07 µM (inactive); in the assay with LXFL 529 it was 1.74 µM (inactive). The GI50 is 2.33 µM (inactive) in the assay with 786-0, 3.85 µM (inactive) with KM12 and 2.88 µM (inactive) with RPMI-8226.

Turning to `CC1(C)C(=O)C(C)(C)C1=NN`, the GI50 was > 100 µM (inactive) in the assay on Malme-3M; > 100 µM (inactive) in the assay on HCC 2998; above 100 µM with HCT-15; > 100 µM (inactive) in the assay with COLO 205; > 100 µM (inactive) in the assay on SK-MEL-28; > 100 µM (inactive) in the assay with ACHN. Besides, the GI50 in the assay on LOX IMVI, in the assay on NCI-H226, in the assay with UACC-62, with NCI-H23, in the assay on K562 and with SK-MEL-5 was > 100 µM (inactive) each time. Also, the GI50 with LXFL 529, in the assay with OVCAR-5, in the assay on 786-0, with KM12 and in the assay on RPMI-8226 was > 100 µM (inactive) each time.

With `CC(=O)C1Cn2c(=O)c3cc4ccccc4cc3c(=O)n2C=C1C` (configuration not stated), the GI50 was > 100 µM (inactive) in the assay with Malme-3M; > 100 µM (inactive) with HCC 2998; 76.7 µM with HCT-15; > 100 µM (inactive) in the assay with COLO 205; > 100 µM (inactive) with SK-MEL-28; > 100 µM (inactive) in the assay with ACHN. The GI50 in the assay with LOX IMVI is > 100 µM (inactive); in the assay with NCI-H226 it was > 100 µM (inactive); in the assay with NCI-H23, > 100 µM (inactive); with K562 it was > 100 µM (inactive); in the assay on SK-MEL-5, 91.4 µM (inactive); with LXFL 529, 83.4 µM (inactive). For the same compound, the GI50 in the assay on OVCAR-5, in the assay with 786-0, in the assay on KM12 and in the assay on RPMI-8226 was > 100 µM (inactive) throughout.

Consider `O=C(c1cccs1)N(C(=S)N1CCN(c2ccccn2)CC1)C1CCCCC1`, for which the GI50 was 36.3 µM (inactive) in the assay with Malme-3M; 78 µM with HCT-15; 22.4 µM (inactive) in the assay on COLO 205; > 100 µM (inactive) in the assay with SK-MEL-28; 69.2 µM (inactive) in the assay with ACHN; 77.4 µM (inactive) in the assay on LOX IMVI. The GI50 in the assay with NCI-H226 is 19.5 µM (inactive); in the assay with UACC-62, > 100 µM (inactive); with NCI-H23 it was > 100 µM (inactive); in the assay on K562, 47 µM (inactive); with SK-MEL-5, 31.3 µM (inactive); in the assay on LXFL 529, 58.6 µM (inactive). Moreover, the GI50 is > 100 µM (inactive) in the assay with OVCAR-5, > 100 µM (inactive) in the assay on 786-0, 60.5 µM (inactive) with KM12 and 43.1 µM (inactive) in the assay with RPMI-8226.

With `COc1cccc(NC(=O)CSc2nnc(-c3ccc(NC(C)=O)cc3)o2)c1`, the GI50 is > 100 µM (inactive) in the assay with Malme-3M; above 100 µM in the assay with HCT-15; > 100 µM (inactive) with COLO 205; > 100 µM (inactive) in the assay with SK-MEL-28; > 100 µM (inactive) with ACHN; > 100 µM (inactive) in the assay on LOX IMVI. Also, the GI50 in the assay with NCI-H226, in the assay on UACC-62, with NCI-H23, in the assay on K562, in the assay on SK-MEL-5 and with LXFL 529 was > 100 µM (inactive) throughout. In addition, the GI50 in the assay with OVCAR-5 is 83.2 µM (inactive); with 786-0, > 100 µM (inactive); in the assay with KM12 it was 49.4 µM (inactive); in the assay with RPMI-8226, > 100 µM (inactive).

Consider `Cc1cc(C=O)c2c(=O)c3c(O)ccc(/C=C/C(C)C)c3oc2c1`, for which the GI50 in the assay on Malme-3M is > 100 µM (inactive); in the assay with HCC 2998 it was > 100 µM (inactive); in the assay on HCT-15, 30.5 µM; in the assay on COLO 205, > 100 µM (inactive); in the assay on SK-MEL-28, 37.9 µM (inactive); in the assay on ACHN, 46.3 µM (inactive). The GI50 in the assay with NCI-H226 was > 100 µM (inactive); in the assay on UACC-62, 56.8 µM (inactive); with NCI-H23, 46.7 µM (inactive); in the assay on K562, 39.8 µM (inactive); in the assay on SK-MEL-5 it was 65.5 µM (inactive); in the assay with LXFL 529, 43.4 µM (inactive). In addition, the GI50 was > 100 µM (inactive) in the assay with OVCAR-5, 39.8 µM (inactive) in the assay with 786-0, 86.9 µM (inactive) in the assay with KM12 and 23.1 µM (inactive) in the assay on RPMI-8226.

`CC(=O)c1ccc2c(ccc(=O)n2C)c1`: the GI50 was > 100 µM (inactive) in the assay with Malme-3M; > 100 µM (inactive) with HCC 2998; above 100 µM in the assay on HCT-15; > 100 µM (inactive) in the assay on COLO 205; > 100 µM (inactive) in the assay on SK-MEL-28; > 100 µM (inactive) with LOX IMVI. The GI50 with NCI-H226 was > 100 µM (inactive); in the assay on UACC-62, 93.8 µM (inactive); in the assay with NCI-H23 it was > 100 µM (inactive); in the assay on K562, > 100 µM (inactive); in the assay with SK-MEL-5, > 100 µM (inactive); in the assay with LXFL 529, > 100 µM (inactive). Further, the GI50 in the assay on OVCAR-5, in the assay with 786-0, with KM12 and in the assay on RPMI-8226 was > 100 µM (inactive) in each case.

`NC1=NN(c2ccccc2)C(=O)C1/C(=N\NC(=O)c1cc2ccccc2cc1O)C(=O)Nc1cccc(C(F)(F)F)c1` (configuration not stated): the GI50 was 37 µM (inactive) in the assay with Malme-3M; 46.2 µM (inactive) with HCC 2998; 35.7 µM (inactive) in the assay with COLO 205; 57.7 µM (inactive) with SK-MEL-28; 30.1 µM (inactive) in the assay with ACHN; 25.9 µM (inactive) with LOX IMVI. Further, the GI50 with UACC-62 was 35.2 µM (inactive); in the assay with NCI-H23 it was 29.2 µM (inactive); in the assay on SK-MEL-5, 23.1 µM (inactive); in the assay on LXFL 529, 39.3 µM (inactive); in the assay with OVCAR-5, 26.2 µM (inactive); in the assay on 786-0, 38.1 µM (inactive). In addition, the GI50 with KM12 is 37.3 µM (inactive); in the assay with RPMI-8226 it was 39.7 µM (inactive).

Regarding `CC(C)C(=O)/C=C/c1ccc(Cl)cc1`, the GI50 with HCC 2998 was 18 µM (inactive); in the assay on COLO 205 it was 28.2 µM (inactive); in the assay on SK-MEL-28, > 10 µM (inactive); in the assay on ACHN, 11.2 µM (inactive); in the assay on LOX IMVI, 8.83 µM (inactive); in the assay with UACC-62, 15.4 µM (inactive). Also, the GI50 is 17 µM (inactive) in the assay with NCI-H23; 3.48 µM (inactive) in the assay on K562; 8.57 µM (inactive) with SK-MEL-5; 14.9 µM (inactive) with LXFL 529; 20.2 µM (inactive) with OVCAR-5; 11.1 µM (inactive) in the assay with 786-0. Also, the GI50 in the assay on KM12 was 11.5 µM (inactive); with RPMI-8226, 5.37 µM (inactive).

`COc1cc(C2c3cc4c(cc3[C@@H](N(C)c3ccc(N(C)C)cc3)C3COC(=O)C23)OCO4)cc(OC)c1O` (some centres not stated): the GI50 was 0.785 µM (active) in the assay on HCC 2998; 0.449 µM with HCT-15; 0.479 µM (active) in the assay with COLO 205; 1.25 µM (inactive) in the assay on SK-MEL-28; 0.774 µM (active) in the assay with ACHN; 0.437 µM (active) in the assay on LOX IMVI. The GI50 is 0.292 µM (active) in the assay with NCI-H226; 0.472 µM (active) in the assay with UACC-62; 0.291 µM (active) with NCI-H23; 0.329 µM (active) in the assay with K562; 0.383 µM (active) with SK-MEL-5; 0.312 µM (active) with LXFL 529. The GI50 in the assay on OVCAR-5 was 3.42 µM (inactive); in the assay with 786-0, 0.489 µM (active); with KM12 it was 0.377 µM (active); in the assay with RPMI-8226 it was 0.923 µM (active).

Source of the values: ChEMBL document CHEMBL1201862, “PubChem BioAssay data set” (2004).
